Measured values as given in patent US12024515B2, “Kifunensine derivatives” (University of Kansas, priority 2021, dated 2024).
Numbered stars: 1 amine (or outer) side, 2 acyl side, 3 side chain; on linkers, the order of the positions; unused ones are H or OH. Bridge positions count the residues as written; N and C are the ends. Square brackets hold non-standard residues; d marks the D form. Peptide text beside a SMILES is read from it. I, II: the chains in the order shown. Actinocin(9to1) = Cc1c2oc3c(C)ccc(C(=O)[*:1])c3nc-2c(C(=O)[*:2])c(N)c1=O; NMeV = CN[C@H](C(=O)O)C(C)C; Sar = CNCC(=O)O

What was measured:
Raji cells [1] = test: CD20 expression in Raji cells (flow cytometry of surface CD20, western blotting); assay type: cell-based; conditions: for cell surface expression of CD20: 48 hours, flow cytometry, Kif 25 μM, Swain 25 μM, DMJ 1 mM, DIM 1 mM (FIG. 1A, 1C); for effect on Kif mediated CD20 upregulation: with Kif 25 μM, actinomycin D 10 μg/ml, cycloheximide 100 μg/ml, 48 hours (FIG. 2A)
Procedure: (§1) FIGS. 1A-1E relate to kifunensine (“Kif”) induced expression of CD20. Raji cells were incubated with Kif for 48 hours and CD20 levels on the cell surface levels were analyzed by flow cytometry (FIG. 1A) and in whole cell lysate by western blotting (FIG. 1B). Raji cells were preincubated with Kif (25 μM), Swain (25 μM), DMJ (1 mM), and DIM (1 mM) or vehicle for 48 hours, and the cell surface levels of CD20 were analyzed by flow cytometry (FIG. 1C). Cells were incubated with Kif (25 μM) or vehicle for 48 hours and the cell surface levels of CD20 were analyzed by flow cytometry (FIG. 1D). Raji and rituximab resistant cells were incubated with Kif (25 μM) or vehicle for 48 hours and the cell surface levels of CD20 were analyzed by flow cytometry (FIG. 1E). Results are presented as a percentage of MFI of vehicle treated control cells (±SD). Statistical significance was determined with Kruskal-Wallis test, *P<0.033, **P<0.002, ****P<0.001, vs control.
Staining of surface antigens. Cells were treated for 48 hours with the described inhibitors at the indicated concentrations or with DMSO controls. Cells were then harvested, washed twice with cold flow buffer (PBS (GIBCO) containing 0.5% BSA and 0.1% sodium azide (Fisher)), stained for 1 hour with 0.25 μg of anti-CD20 mAb (clone 2H7) conjugated with Super Bright 645 (eBioscience, ThermoFisher Scientific), then washed twice with flow buffer, and finally the cells were incubated with flow buffer containing 2.5 μg/mL 7-aminoactinomycin (7-AAD, eBioscience, ThermoFisher Scientific) for 10 minutes prior to being analyzed using an Attune NxT Flow Cytometer. CD20 expression was assessed in 7-AAD negative cells.

MS4A1 = test: CD20 mRNA (MS4A1) expression by RT-PCR; assay type: cell-based; conditions: Raji cells, Kif 25 μM, 48 hours, RT-PCR (FIG. 2B)
Procedure: FIGS. 2A-2B illustrates that Kif mediates CD20 upregulation occurs upstream of transcription and translation. Cells were incubated with Kif (25 μM), Kif (25 μM) plus actinomycin D (10 μg/ml), Kif (25 μM) plus cycloheximide (100 μg/ml), or vehicle control (Con) for 48 hours and the cell surface levels of CD20 were analyzed by flow cytometry (FIG. 2A). Cells were incubated with Kif (25 μM) or vehicle control (Con) for 48 hours and CD20 mRNA levels were analyzed by RT-PCR (FIG. 2B).

malignant B cell lines [2] = test: ADCC assay with anti-CD20 antibody and CD16+ NK-92 effector cells; assay type: cell-based
Procedure: FIGS. 3A-3B illustrate Kif potentiates the activity of anti-CD20 antibodies in vitro. Cells were incubated with Kif (25 μM) or vehicle control (Con) for 48 hours prior to rituximab mediated ADCC (FIG. 3A) or CDC (FIG. 3B). ADCC assays. Target cells were labelled with CellTrace Violet according to the manufacturer's instructions (ThermoFisher Scientific). In brief, 1 million target cells were washed twice with warm PBS, then stained with 5 μM CellTrace Violet in PBS for 20 minutes at 37° C. Then, 5 volume equivalents of complete media were added and the resulting solution was incubated for 10 minutes at 37° C. The cells were pelleted and washed twice with fresh complete media, and the cell suspension was adjusted to 800,000 cells/mL in complete media. 25 μL of the target cell suspension (i.e., 20,000 target cells) were then in added to a 96-well plate. 25 μL of rituximab solutions at 4× the indicated concentrations in complete media or complete media were added to experiment wells and the control wells respectively, and the resulting suspensions were incubated for 30 minutes at 37° C. Subsequently, 50 μL of a 1.6 million CD-16+ NK-92 cells/mL suspension in complete media (E:T 4:1, i.e., 80,000 effector cells) were added to experiment wells and control wells (i.e., no antibody) and the plate was incubated for 4 hours at 37° C. in a fully humidified atmosphere of 5% CO2. Subsequently, 6 uL of 2.5 μg/mL was added to each well and after 10 minutes the plate was analyzed using an Attune NxT Flow Cytometer. Target cell viability was accessed by determining the percentage of CellTrace Violet and 7-AAD positive cells. ADCC was calculated as follows: % ADCC=% 7-AAD positive target cells in experiment well—% 7-AAD positive target cells in control wells.

malignant B cell lines [3] = test: CDC assay with anti-CD20 antibody and pooled human serum; assay type: cell-based
Procedure: FIGS. 3A-3B illustrate Kif potentiates the activity of anti-CD20 antibodies in vitro. Cells were incubated with Kif (25 μM) or vehicle control (Con) for 48 hours prior to rituximab mediated ADCC (FIG. 3A) or CDC (FIG. 3B). CDC assays. 25 μL of the target cell suspension at 2 million cells/mL (i.e., 50,000 target cells) were added to a 96-well plate. 25 μL of antibody solutions at 4× the indicated concentrations in complete media or complete media were added to experiment wells and the control wells respectively, and the resulting suspensions were incubated for 30 minutes at 37° C. Subsequently, 50 μL of a 20% of pooled human serum in complete media were added to experiment wells and control wells (i.e., no antibody) and the plate was incubated for 1 hours at 37° C. in a fully humidified atmosphere of 5% CO2. Subsequently, 6 uL of 2.5 μg/mL was added to each well and after 10 minutes the plate was analyzed using an Attune NxT Flow Cytometer. Target cell viability was accessed by determining the percentage of 7-AAD positive cells. CDC was calculated as follows: % CDC=% 7-AAD positive target cells in experiment well—% 7-AAD positive target cells in control wells.

[4] = system: Raji cells and Rituximab resistant Raji 4RH cells; test: In vivo CD20 expression in subcutaneous Raji and Raji 4RH tumors (Western blot); conditions: SCID mice, i.p., 10 mg/kg every second day over 8 days
Procedure: In vivo increase in CD20 expression of Raji cells and Rituximab resistant Raji 4RH cells. A study was performed to determine whether Kif can increase the expression of CD20 on Raji cells and Rituximab resistant Raji 4RH cells that had been subcutaneously inoculated into the flank of six week old SCID mice. After inoculation, tumors were permitted to grow for 10 days prior to treatment initiation. The mice were randomly divided into control and treatment groups. Control group received PBS, while the treatment group received Kif (i.p., 10 mg/kg) every second day over an 8 day period. The mice were then scarified, tumors were harvested, and CD20 expression was assessed by Western blot.

[5] = system: patient derived primary CLL samples; test: CD20 expression in patient derived primary CLL samples; assay type: cell-based
Raji cells [6] = test: Histone acetylation in Raji cells; assay type: cell-based
[7] = system: panel of cells lines representing diffuse large B cell lymphoma, Burkitt lymphoma, and follicular lymphoma; test: Cell surface CD20 in a panel of B cell lymphoma cell lines (flow cytometry); assay type: cell-based; conditions: 25 μM, 48 hours, flow cytometry (FIG. 1D)
Procedure: as §1
(§2) Staining of surface antigens. Cells were treated for 48 hours with the described inhibitors at the indicated concentrations or with DMSO controls. […] CD20 expression was assessed in 7-AAD negative cells.

[8] = system: rituximab resistant cell lines (Raji 2R, Raji 4RH, RL 4RH); test: Cell surface CD20 in rituximab resistant cell lines (flow cytometry); assay type: cell-based; conditions: 25 μM, 48 hours (FIG. 1E)
Procedure: as §1, §2

## OC[C@@H](O)[C@H]1NC[C@@H](O)[C@H]1O [DIM, 1,4-dideoxy-1,4-imino-D-mannitol]
Raji cells [1]; Raji cells
  cell surface expression of CD20: significantly increase CD20 expression

## Cc1c2oc3c(C)ccc(C(=O)N[C@@H]4C(=O)N[C@H](C(C)C)C(=O)N5CCC[C@H]5C(=O)N(C)CC(=O)N(C)[C@@H](C(C)C)C(=O)O[C@@H]4C)c3nc-2c(C(=O)N[C@@H]2C(=O)N[C@H](C(C)C)C(=O)N3CCC[C@H]3C(=O)N(C)CC(=O)N(C)[C@@H](C(C)C)C(=O)O[C@@H]2C)c(N)c1=O [ACT-D, actinomycin D] (I: T[dV]P[Sar][NMeV] / II: T[dV]P[Sar][NMeV]; ester I:1-I:C, II:1-II:C; linker I:N-II:N via Actinocin(9to1))
Raji cells [1]
  effect on Kif mediated CD20 upregulation: inhibit Kif mediated CD20 upregulation

## C[C@@H]1C[C@@H]([C@H](O)CC2CC(=O)NC(=O)C2)C(=O)[C@@H](C)C1 [CHX, cycloheximide]
Raji cells [1]
  effect on Kif mediated CD20 upregulation: inhibit Kif mediated CD20 upregulation

## O[C@H]1[C@H]2[C@H](O)CCCN2C[C@H]1O [Swain, swainsonine]
Raji cells [1]; Raji cells
  cell surface expression of CD20: significantly increase CD20 expression

## O=C1N[C@@H]2[C@@H](O)[C@@H](O)[C@H](O)[C@@H](CO)N2C1=O [Kif, kifunensine]
MS4A1
  expression of MS4A1: altered the expression of the MS4A1
Malignant B cell lines [2]; ADCC
  obinutuzumab potency in combination with Kif: potency of obinutuzumab was also increased
Malignant B cell lines [2]; Raji 2R and Raji 4RH
  sensitization of rituximab resistant cell lines to rituximab (ADCC): sensitized to the action of rituximab
Malignant B cell lines [2]; all cell lines tested, Kif 25 μM 48 hours before rituximab mediated ADCC (FIG. 3A)
  rituximab potency in ADCC in combination with Kif: potency of rituximab was increased
Malignant B cell lines [3]; Kif treated cells, absence of antibody
  complement mediated killing without antibody: more susceptible to complement mediated killing in the absence of antibody
Malignant B cell lines [3]; cells treated with Kif prior to CDC (FIG. 3B)
  susceptibility to CDC with rituximab and ofatumumab: rendered cells more susceptible
Malignant B cell lines [3]; rituximab resistant cells, data not shown
  sensitization of rituximab resistant cells to CDC: not sensitized to CDC
Raji cells [1]; Raji cells
  cell surface expression of CD20: increases cell surface expression of CD20 in Raji cells in a concentration dependent manner
Raji cells [1]; Raji cells, whole cell lysate, 48 hours (FIG. 1B)
  CD20 expression by western blotting: increase CD20 expression was confirmed by western blotting
[4]
  side effects: no side effects were observed
[4]; Western blot, Raji and Raji 4RH
  CD20 expression in tumors: increases the expression of CD20
[5]
  CD20 expression in primary CLL samples: increases CD20 expression in a dose-dependent and significant manner
Raji cells [6]
  histone acetylation: did not significantly alter histone acetylation
[7]
  CD20 upregulation in panel of cell lines: upregulates CD20
[8]
  CD20 expression in rituximab resistant cell lines: significantly increased CD20 expression

## OC[C@H]1NC[C@@H](O)[C@@H](O)[C@@H]1O [DMJ, 1-deoxymannojirimycin hydrochlorie]
Raji cells [1]; Raji cells
  cell surface expression of CD20: significantly increase CD20 expression
